# Experimental data from publication PMC5905120, “An innovative immunotherapeutic strategy for ovarian cancer: CLEC10A and glycomimetic peptides” (Journal for Immunotherapy of Cancer, 2018).
# Bridges are numbered along the chain shown (N, C = ends). Roman numbers before positions name the chains, in order. Where no end group is shown, it is not given here.
# Assays:
# CLEC9A = test: Solid-phase binding to CLEC9A; design: species or system human; conditions: Fig. 2b
# Method: (§1) Solid-phase binding assays were performed with streptavidin-, protein A/G-, or Nickel-coated microtiter plates (Pierce). His-tagged or Fc-fusion recombinant receptors (R&D Systems, Minneapolis, MN) were reconstituted in PBS. Sufficient receptors were added to wells to saturate the coating. His-tagged receptors were added to each well at a 5-fold excess over the stated capacity of the Ni coating to minimize non-specific binding of the peptide. Wells were washed three times with binding buffer (25 mM Tris HCl, pH 7.4, 150 mM NaCl, 0.05% Tween-20) to remove unbound receptor and 50 μL of 2 μM biotinylated peptide in binding buffer were added and allowed to incubate for 1 h. The wells were washed four times with binding buffer and then incubated with 50 μL of 1 μg/mL streptavidin conjugated with peroxidase (Sigma-Aldrich) for 1 h. […] After several minutes to allow color development, the reaction was stopped with 50 μL 1 M H3PO4 and absorbance was measured at 450 nm. Bound streptavidin was quantitated by the specific activity of peroxidase (absorbance/ng protein conjugate/min) under the conditions of the assay.
# (§2) Solid-phase binding assays were performed with recombinant human receptors. […] After extensive washing, the bound receptor was measured by peroxidase conjugated to a receptor-specific antibody. […]
# DC-SIGN = test: Solid-phase binding to DC-SIGN; design: species or system human; conditions: Fig. 2b
# Method: as §1, §2
# [1] = system: serum cytokines/chemokines (mouse L-308 membrane array); test: Serum cytokine array, healthy Balb/c mice; assay type: in vivo, mouse (Balb/c)
# Method: Ratios of treated vs. untreated samples obtained in a separate experiment with healthy Balb/c mice are shown in the right-hand column of Table 3 for comparison. The most significant increase in the serum of healthy mice treated with the peptide was in the amount of soluble HVEM (Herpes virus entry mediator, also designated TNFRSF14), which was a prominent protein in serum and increased approximately 10-fold within 4 h after treatment. In the tumor-bearing mice, the level of soluble HVEM in treated animals was similar to that in treated healthy mice, but the level in untreated animals was higher than that in healthy control mice.
# [2] = system: peritoneal cells of Balb/c mice; test: Peritoneal immune cell populations by flow cytometry, healthy Balb/c mice; assay type: in vivo, mouse (Balb/c)
# Method: Healthy C57BL/6 male mice, 10 weeks old, were injected subcutaneously with peptides on alternate days. Peritoneal cells were isolated from mice 24 h after dosing by injecting ice cold PBS (containing 3% FBS) into the peritoneal cavity, gently massaging the abdomen, and then collecting the fluid, which was transferred into K2EDTA-treated tubes for evaluation of specific biomarkers. Cells from three mice in each group were pooled, counted and divided among FACS tubes (1 × 10^6 cells per tube). Cells were washed once in PBS containing 3% FBS, then stained with 0.25 to 1 μg of fluorescently conjugated antibody per 10^6 cells in 100 μL of buffer as recommended by the manufacturer (Table 2).
# Cells were incubated with the antibodies for 30 min at 4 °C in the dark. Following staining, the cells were washed two times with PBS/3% FBS and immediately analyzed with a MACSQuant flow cytometer (Miltenyi Biotech, Inc., San Diego, CA). Compensation was performed using single stain tubes for each color present in the analysis as well as an unstained control sample. Collection of flow cytometric data and analysis with FlowJo software, version 10.0.6 (FlowJo, LLC, Ashland, OR) were performed by Biomodels LLC (Watertown, MA).
# To examine whether increases occurred in mature immune cells, peritoneal cells from Balb/c and C57BL/6 mice were analyzed by flow cytometry after cells were stained with the markers listed in Table 2. […] To explore this observation more extensively, svL4 or sv6D was injected into C57BL/6 mice on day 0, 2 or 4. Peritoneal cells were examined by flow cytometry 24 h after each injection. Shown in Fig. 5 are results expressed as cell counts for F4/80 CD11b CD86 (mature, active macrophages); CD11c (DCs); CD11c CD 86 (activated DCs); CD4 CD69 (activated T cells); CD8 CD69 (activated cytotoxic T cells); NK1.1 CD3^+ CD69 (activated NKT cells); NK1.1 CD3^− CD69 (activated NK cells); CD19 (B cells); and CD19 CD73 CD80 CD273 (memory B cells). The numbers of these mature, activated cells continued to increase with each injection.
# human ASGPR-1 = biological target: T1, human ASGPR-1 (Homo sapiens, UniProt P07306); test: Solid-phase binding to recombinant human ASGPR-1; conditions: Fig. 2a, representative of 3 independent experiments
# T1 construct: purchased R&D Systems
# T1 sequence (P07306 62-291 limits assumed): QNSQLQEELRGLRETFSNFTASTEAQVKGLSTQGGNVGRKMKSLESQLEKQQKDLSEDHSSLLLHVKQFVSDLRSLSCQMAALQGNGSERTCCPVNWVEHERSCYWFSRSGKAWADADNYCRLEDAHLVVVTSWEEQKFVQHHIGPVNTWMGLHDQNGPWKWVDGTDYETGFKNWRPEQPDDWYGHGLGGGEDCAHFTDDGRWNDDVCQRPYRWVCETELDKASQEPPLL
# Method: Solid-phase binding assays were performed with streptavidin-, protein A/G-, or Nickel-coated microtiter plates (Pierce). His-tagged or Fc-fusion recombinant receptors (R&D Systems, Minneapolis, MN) were reconstituted in PBS. Sufficient receptors were added to wells to saturate the coating. His-tagged receptors were added to each well at a 5-fold excess over the stated capacity of the Ni coating to minimize non-specific binding of the peptide. Wells were washed three times with binding buffer (25 mM Tris HCl, pH 7.4, 150 mM NaCl, 0.05% Tween-20) to remove unbound receptor and 50 μL of 2 μM biotinylated peptide in binding buffer were added and allowed to incubate for 1 h. The wells were washed four times with binding buffer and then incubated with 50 μL of 1 μg/mL streptavidin conjugated with peroxidase (Sigma-Aldrich) for 1 h. The wells were washed five times with binding buffer and 50 μL of peroxidase substrate (1-Step™ Ultra TMB, Pierce) were added. After several minutes to allow color development, the reaction was stopped with 50 μL 1 M H3PO4 and absorbance was measured at 450 nm. Bound streptavidin was quantitated by the specific activity of peroxidase (absorbance/ng protein conjugate/min) under the conditions of the assay.
# Solid-phase binding assays were performed with recombinant human receptors. Three variations of the binding assay were used in this study, all of which allowed the arms of the tetravalent peptide to have full flexibility. (i) Biotinylated peptide was bound in microtiter wells coated with streptavidin and incubated with recombinant human receptors. After extensive washing, the bound receptor was measured by peroxidase conjugated to a receptor-specific antibody. (ii) The extracellular domains of receptors, which were fused with the Fc domain of immunoglobulin IgG, were bound in wells coated with protein A/G. Biotinylated peptide was incubated with the receptors and, after extensive washing, bound peptide was measured with streptavidin conjugated with peroxidase. Or (iii), recombinant receptors with a poly-His tag were bound to Nickel-coated wells and incubated with biotinylated peptide. svL4 and sv6D contain His residues (see Table 1) and can bind to the Ni coating, which was minimized by adding sufficient poly-His-tagged receptor to saturate the Ni coating.
# [3] = healthy mice, separate experiment, three animals pooled
# [4] = healthy mice, separate experiment, three animals pooled, * control value negligible or low
substance,measurement,setting,value
"I: VQATQSNQHTPRGGGSKK-NH2 / II: VQATQSNQHTPRGGGSK / III: VQATQSNQHTPRGGGS / IV: VQATQSNQHTPRGGGS (amide I:17-IV:C, I:18-II:C, II:17-III:C) [svL4]",binding to CLEC9A,CLEC9A,did not bind significantly
same,binding to DC-SIGN,DC-SIGN,did not bind significantly
same,ratio treated/untreated serum CCL1,[1]; [3],No change
same,ratio treated/untreated serum IFN-γ,[1]; [3],No change
same,ratio treated/untreated serum IL-1α,[1]; [3],0.86
same,ratio treated/untreated serum IL-12p70,[1]; [3],No change
same,ratio treated/untreated serum IL-16,[1]; [3],0.57
same,ratio treated/untreated serum IL-27,[1]; [3],0.55
same,ratio treated/untreated serum Lymphotactin,[1]; [3],2.6
same,ratio treated/untreated serum Lymphotoxin-α,[1]; [3],0.74
same,ratio treated/untreated serum MIP-2/CXCL2,[1]; [3],No change
same,ratio treated/untreated serum Pentraxin3,[1]; [3],0.21
same,ratio treated/untreated serum SPARC,[1]; [3],No change
same,ratio treated/untreated serum TIMP-2,[1]; [3],0.45
same,ratio treated/untreated serum TLR2,[1]; [3],0.37
same,ratio treated/untreated serum TNFα,[1]; [3],0.21
same,ratio treated/untreated serum sHVEM,[1]; [3],10
same,ratio treated/untreated serum IL-28,[1]; [4],High*
same,ratio treated/untreated serum IL-31,[1]; [4],High*
same,increase of soluble HVEM in serum,[1]; within 4 h after treatment,approximately 10 fold
same,"increases in macrophages, DCs, T cells and NK cells","[2]; 1 nmole/g s.c., 24 h after a single injection",Several-fold increases
same,CD90.2^+ fraction of small cells,[2]; after treatment with svL4,about 15%
same,increase in mature immune cells,[2]; within 24 h after a single injection (data not shown),approximately 2 fold
same,"small cells (low FSc, low SSc)","[2]; within 24 h after injection, healthy Balb/c, Fig. S1b",decreased to a minimal level
same,binding to ASGPR-1,human ASGPR-1,also to ASGPR-1
